Test results taken from ChEMBL document CHEMBL1909046, “DrugMatrix in vitro pharmacology data”.

How the values were obtained:
B2 bradykinin receptor = target: T1, B2 bradykinin receptor (Homo sapiens, UniProt P30411); assay type: cell membranes, Membrane; conditions: chem-1; also: in other assays of this panel Not Active means under 50% inhibition at 10 µM
T1 sequence (P30411 whole entry): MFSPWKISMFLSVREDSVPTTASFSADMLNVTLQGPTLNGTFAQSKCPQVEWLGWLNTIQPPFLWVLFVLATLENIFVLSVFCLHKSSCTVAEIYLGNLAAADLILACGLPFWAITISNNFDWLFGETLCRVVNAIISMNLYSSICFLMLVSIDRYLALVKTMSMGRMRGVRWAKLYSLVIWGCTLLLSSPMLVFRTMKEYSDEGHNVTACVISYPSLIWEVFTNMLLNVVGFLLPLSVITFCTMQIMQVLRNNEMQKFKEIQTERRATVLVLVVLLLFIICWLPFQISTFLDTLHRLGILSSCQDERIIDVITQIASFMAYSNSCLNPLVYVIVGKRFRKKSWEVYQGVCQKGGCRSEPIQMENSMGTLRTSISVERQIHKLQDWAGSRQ

Calcitonin receptor = target: T2, Calcitonin receptor (Homo sapiens, UniProt P30988); assay type: cell membranes, Membrane; conditions: t47d; also: in other assays of this panel Not Active means under 50% inhibition at 10 µM
T2 sequence (P30988 whole entry): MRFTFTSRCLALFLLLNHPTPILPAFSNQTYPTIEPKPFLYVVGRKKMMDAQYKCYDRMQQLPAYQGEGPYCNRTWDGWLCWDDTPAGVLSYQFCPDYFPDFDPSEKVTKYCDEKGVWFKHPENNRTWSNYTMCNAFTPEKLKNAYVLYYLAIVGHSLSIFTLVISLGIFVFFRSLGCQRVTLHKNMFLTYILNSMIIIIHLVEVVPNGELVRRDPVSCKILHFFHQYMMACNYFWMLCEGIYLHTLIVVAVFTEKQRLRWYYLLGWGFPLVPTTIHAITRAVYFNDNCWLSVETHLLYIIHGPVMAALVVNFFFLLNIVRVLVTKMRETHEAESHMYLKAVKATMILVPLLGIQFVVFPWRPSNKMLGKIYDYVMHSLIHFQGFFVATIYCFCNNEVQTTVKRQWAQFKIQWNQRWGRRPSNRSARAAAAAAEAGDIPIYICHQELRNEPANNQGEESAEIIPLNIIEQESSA

[1] = target: 5-hydroxytryptamine receptor 6 (Homo sapiens, UniProt P50406); assay type: cell membranes, HeLa, Membrane; conditions: hela; also: in other assays of this panel Not Active means under 50% inhibition at 10 µM
5-hydroxytryptamine receptor 6, sequence (P50406 whole entry): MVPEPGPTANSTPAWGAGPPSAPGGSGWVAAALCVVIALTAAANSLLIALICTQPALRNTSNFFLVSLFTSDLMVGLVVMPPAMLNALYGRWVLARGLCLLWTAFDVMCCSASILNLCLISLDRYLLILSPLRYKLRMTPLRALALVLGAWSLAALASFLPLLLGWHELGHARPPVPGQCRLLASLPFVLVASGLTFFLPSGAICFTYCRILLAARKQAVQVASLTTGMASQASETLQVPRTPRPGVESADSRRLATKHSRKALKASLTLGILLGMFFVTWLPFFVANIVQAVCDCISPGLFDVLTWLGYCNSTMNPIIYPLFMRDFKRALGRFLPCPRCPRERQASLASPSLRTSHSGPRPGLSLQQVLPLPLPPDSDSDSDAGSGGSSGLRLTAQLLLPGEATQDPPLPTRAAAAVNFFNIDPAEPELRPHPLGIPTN

[2] = target: Sigma non-opioid intracellular receptor 1 (Homo sapiens, UniProt Q99720); assay: DRUGMATRIX: Sigma1 radioligand binding (ligand: [3H] Haloperidol); assay type: cell membranes, Jurkat, Membrane; conditions: Not Active = under 50% inhibition at 10 µM
Sigma non-opioid intracellular receptor 1, sequence (Q99720 whole entry): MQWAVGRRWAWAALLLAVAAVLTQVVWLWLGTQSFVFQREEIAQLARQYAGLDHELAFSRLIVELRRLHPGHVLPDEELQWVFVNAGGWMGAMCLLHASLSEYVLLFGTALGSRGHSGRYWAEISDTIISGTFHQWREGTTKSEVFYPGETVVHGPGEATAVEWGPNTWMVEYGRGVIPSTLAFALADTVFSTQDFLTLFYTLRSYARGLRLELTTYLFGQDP

[3] = DRUGMATRIX: Calcium Channel Type L, Phenylalkylamine radioligand binding (ligand: [3H] (-)-Desmethoxyverapamil (D-888)); assay type: cell membranes, Rattus norvegicus, Wistar, Brain, Membrane; conditions: Not Active = under 50% inhibition at 10 µM
[4] = DRUGMATRIX: Potassium Channel [KATP] radioligand binding (ligand: [3H] Glyburide); assay type: cell membranes, Membrane; conditions: hit-t15; Not Active = under 50% inhibition at 10 µM

| Compound | IC50 (B2 bradykinin receptor) | IC50 (Calcitonin receptor) | IC50 [1] | IC50 ([2]; jurkat) | IC50 [3] | Ki [3] | IC50 [4] | Ki [4] | IC50 ([2]; read-out: IC50) [nM] | Ki ([2]; read-out: Ki) [nM] | Ki (B2 bradykinin receptor) | Ki (Calcitonin receptor) | Ki [1] | Ki ([2]; jurkat) |
| --- | --- | --- | --- | --- | --- | --- | --- | --- | --- | --- | --- | --- | --- | --- |
| O=C1C(CC[S+]([O-])c2ccccc2)C(=O)N(c2ccccc2)N1c1ccccc1 (stereo not given) [SULFINPYRAZONE] | Not Active | Not Active | Not Active | Not Active | Not Active | Not Active | Not Active | Not Active |  |  |  |  |  |  |
| NC(=O)N1C(=O)/C(=C(\O)c2cccs2)c2cc(Cl)ccc21 [TENIDAP] | Not Active | Not Active | Not Active | Not Active | Not Active | Not Active | Not Active | Not Active |  |  |  |  |  |  |
| CN(C/C=C/C#CC(C)(C)C)Cc1cccc2ccccc12 [TERBINAFINE] | Not Active | Not Active | Not Active |  | Not Active | Not Active | Not Active | Not Active | 560 | 235 |  |  |  |  |
| CCCCNc1ccc(C(=O)OCCN(C)C)cc1 [TETRACAINE] | Not Active | Not Active | Not Active |  | Not Active | Not Active | Not Active | Not Active | 1670 | 703 |  |  |  |  |
| Cn1c(=O)c2nc[nH]c2n(C)c1=O.O [THEOPHYLLINE] | Not Active | Not Active | Not Active | Not Active | Not Active | Not Active | Not Active | Not Active |  |  |  |  |  |  |
| CS(=O)(=O)c1ccc([C@@H](O)[C@@H](CO)NC(=O)C(Cl)Cl)cc1 [THIAMPHENICOL] | Not Active | Not Active | Not Active | Not Active | Not Active | Not Active | Not Active | Not Active |  |  |  |  |  |  |
| CCN(CC)CCNC(=O)c1cc(S(C)(=O)=O)ccc1OC [TIAPRIDE] | Not Active | Not Active | Not Active | Not Active | Not Active | Not Active | Not Active | Not Active |  |  |  |  |  |  |
| Clc1ccccc1CN1CCc2sccc2C1 [TICLOPIDINE] | Not Active | Not Active | Not Active |  | Not Active | Not Active | Not Active | Not Active | 426 | 179 |  |  |  |  |
| NC1CCN(c2nc3c(cc2F)c(=O)c(C(=O)O)cn3-c2ccc(F)cc2F)C1 (stereo not given) [TOSUFLOXACIN] | Not Active | Not Active | Not Active | Not Active | Not Active | Not Active | Not Active | Not Active |  |  |  |  |  |  |
| O=C(Nc1ccc(Br)cc1)c1cc(Br)cc(Br)c1O [TRIBROMSALAN] | Not Active | Not Active | Not Active | Not Active | Not Active | Not Active | Not Active | Not Active |  |  |  |  |  |  |
| CC(c1cc2ccccc2s1)N(O)C(N)=O (stereo not given) [ZILEUTON] | Not Active | Not Active | Not Active | Not Active | Not Active | Not Active | Not Active | Not Active |  |  |  |  |  |  |
| MANGANESE CHLORIDE ANHYDROUS | Not Active | Not Active | Not Active | Not Active | Not Active | Not Active | Not Active | Not Active |  |  | Not Active | Not Active | Not Active | Not Active |
| SODIUM ORTHOVANAD | Not Active | Not Active | Not Active | Not Active | Not Active | Not Active | Not Active | Not Active |  |  | Not Active | Not Active | Not Active | Not Active |
